These are literature values, as cited in patent publication US20210360928A1, “ANTIMICROBIAL/ANTIVIRAL NONWOVEN AND APPLICATIONS OF THE SAME” (priority 2020, published 2021).

As to `[Cl][Ag]` [silver chloride], the solubility in water entry is given as “unusually insoluble in water”.
